pIC50: −log10 of the molar value.
Key:
JAK2 = target: T1, JAK2 (Homo sapiens, UniProt O60674); assay: Kinobeads assay, JAK2; type: binding; conditions: mixed Molt4/Ramos lysate, read-out: Inhibition values (IC50) JAK2
T1 construct: endogenous in cells; host or cells: mixed Molt4/Ramos lysate (1:2)
How it was run: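 Competition binding in mixed Molt4/Ramos cell lysate (1:2, 10 mg/mL protein) with Kinobeads carrying immobilized aminopyrido-pyrimidine ligand, 3 h in cold room; 9-step 1:3 compound dilution series from 5 mM DMSO stock. Bead-bound JAK2/JAK3 eluted and quantified by antibody dot blot with infrared detection; IC50 from dose-response curves.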

Aurora B = target: T2, Aurora B (Homo sapiens, UniProt Q96GD4); assay: Kinobeads assay, Aurora B; type: binding; conditions: for pIC50: lysate of pervanadate-treated Jurkat cells, read-out: Inhibition values (IC50) Aur B
T2 construct: cell lysates from Jurkat cells (ATCC TIB-152) used; endogenous in cells; host or cells: Jurkat cells (ATCC TIB-152), treated with pervanadate
T2 sequence (Q96GD4 whole entry): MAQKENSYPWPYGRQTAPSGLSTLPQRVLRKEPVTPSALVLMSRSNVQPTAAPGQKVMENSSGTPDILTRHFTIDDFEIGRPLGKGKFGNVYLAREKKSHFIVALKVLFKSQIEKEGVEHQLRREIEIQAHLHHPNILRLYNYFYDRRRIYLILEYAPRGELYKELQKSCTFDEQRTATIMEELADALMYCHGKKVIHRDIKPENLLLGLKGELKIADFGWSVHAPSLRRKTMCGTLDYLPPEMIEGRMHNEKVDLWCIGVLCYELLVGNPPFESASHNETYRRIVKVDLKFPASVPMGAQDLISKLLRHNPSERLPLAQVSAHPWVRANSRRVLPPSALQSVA

T1 sequence (O60674 whole entry): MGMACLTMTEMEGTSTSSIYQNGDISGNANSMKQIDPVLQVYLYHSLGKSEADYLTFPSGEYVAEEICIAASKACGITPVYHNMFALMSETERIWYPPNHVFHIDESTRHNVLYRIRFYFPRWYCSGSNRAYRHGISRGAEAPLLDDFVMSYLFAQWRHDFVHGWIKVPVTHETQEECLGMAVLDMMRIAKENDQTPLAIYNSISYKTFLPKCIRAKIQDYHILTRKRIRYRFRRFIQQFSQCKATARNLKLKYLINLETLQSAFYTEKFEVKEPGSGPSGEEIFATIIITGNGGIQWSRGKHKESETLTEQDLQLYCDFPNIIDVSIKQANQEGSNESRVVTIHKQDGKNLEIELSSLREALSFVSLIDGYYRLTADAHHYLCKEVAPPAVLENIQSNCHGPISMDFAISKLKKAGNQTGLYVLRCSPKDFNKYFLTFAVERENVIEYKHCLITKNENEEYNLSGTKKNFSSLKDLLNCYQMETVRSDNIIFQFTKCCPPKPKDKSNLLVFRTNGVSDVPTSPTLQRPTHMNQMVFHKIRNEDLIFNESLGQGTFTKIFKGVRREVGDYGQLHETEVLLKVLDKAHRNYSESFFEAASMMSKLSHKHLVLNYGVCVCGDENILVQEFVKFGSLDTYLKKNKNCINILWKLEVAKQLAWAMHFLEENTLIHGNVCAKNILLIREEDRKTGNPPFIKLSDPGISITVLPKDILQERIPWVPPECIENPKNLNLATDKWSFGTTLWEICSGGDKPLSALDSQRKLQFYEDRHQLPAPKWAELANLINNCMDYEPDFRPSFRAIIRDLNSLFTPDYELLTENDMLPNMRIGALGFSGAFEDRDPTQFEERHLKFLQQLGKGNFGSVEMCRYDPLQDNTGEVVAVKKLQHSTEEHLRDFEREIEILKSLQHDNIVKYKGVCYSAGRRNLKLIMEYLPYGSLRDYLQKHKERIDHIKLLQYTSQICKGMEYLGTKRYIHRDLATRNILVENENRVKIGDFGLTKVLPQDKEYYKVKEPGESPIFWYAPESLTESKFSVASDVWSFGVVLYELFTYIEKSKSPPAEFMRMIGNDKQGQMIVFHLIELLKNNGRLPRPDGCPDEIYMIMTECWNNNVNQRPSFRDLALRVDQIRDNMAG

SMILES	pIC50 (JAK2)	JAK3/AurB Fold Selectivity (Aurora B)	pIC50 (Aurora B)
Cn1cc(Nc2ncc3cnn(Cc4cc(C(=O)N5CCOCC5)cc(F)c4F)c3n2)cn1 [Example 98, (3,4-difluoro-5-((6-((1-methyl-1H-pyrazol-4-yl)amino)-1H-pyrazolo[3,4-d]pyrimidin-1-yl)methyl)phenyl)(morpholino)methanone]	5.00 to 6.00	3-10 Fold	> 7.00
CNCCCn1cc(Nc2ncc3cnn(Cc4cc(F)cc(N5CCOCC5=O)c4)c3n2)cn1 [Example 99, 4-(3-fluoro-5-((6-((1-(3-(methylamino)propyl)-1H-pyrazol-4-yl)amino)-1H-pyrazolo[3,4-d]pyrimidin-1-yl)methyl)phenyl)morpholin-3-one]	5.00 to 6.00	3-10 Fold	> 7.00
Cn1cc(Nc2ncc3cnn(Cc4cccc(N5CCN(S(C)(=O)=O)CC5)c4)c3n2)cn1 [Example 100, N-(1-methyl-1H-pyrazol-4-yl)-1-(3-(4-(methylsulfonyl)piperazin-1-yl)benzyl)-1H-pyrazolo[3,4-d]pyrimidin-6-amine]	≤ 5.00	10-50 Fold	5.00 to 6.00
O=C1COCCN1c1cc(F)cc(Cn2ncc3cnc(Nc4cnn(CC5CCNC5)c4)nc32)c1 (stereo not drawn) [Example 101, 4-(3-fluoro-5-((6-((1-(pyrrolidin-3-ylmethyl)-1H-pyrazol-4-yl)amino)-1H-pyrazolo[3,4-d]pyrimidin-1-yl)methyl)phenyl)morpholin-3-one]	5.00 to 6.00	10-50 Fold	6.00 to 7.00
O=C1COCCN1c1cc(F)cc(Cn2ncc3cnc(Nc4cnn(C5CCNCC5)c4)nc32)c1 [Example 102, 4-(3-fluoro-5-((6-((1-(piperidin-4-yl)-1H-pyrazol-4-yl)amino)-1H-pyrazolo[3,4-d]pyrimidin-1-yl)methyl)phenyl)morpholin-3-one]	6.00 to 7.00	10-50 Fold	6.00 to 7.00
Cn1cc(Nc2ncc3cnn(Cc4cccc(N5CCOCC5)c4Cl)c3n2)cn1 [Example 103, 1-(2-chloro-3-morpholinobenzyl)-N-(1-methyl-1H-pyrazol-4-yl)-1H-pyrazolo[3,4-d]pyrimidin-6-amine]	5.00 to 6.00	3-10 Fold	6.00 to 7.00
Cn1cc(Nc2ncc3cnn(Cc4cccc(N5CCC6(COC6)C5)c4)c3n2)cn1 [Example 104, 1-(3-(2-oxa-6-azaspiro[3.4]octan-6-yl)benzyl)-N-(1-methyl-1H-pyrazol-4-yl)-1H-pyrazolo[3,4-d]pyrimidin-6-amine]	≤ 5.00	10-50 Fold	5.00 to 6.00
O=C1CC(Cn2cc(Nc3ncc4cnn(Cc5cc(F)cc(N6CCOCC6=O)c5)c4n3)cn2)CN1 (stereo not drawn) [Example 105, 4-(3-fluoro-5-((6-((1-((5-oxopyrrolidin-3-yl)methyl)-1H-pyrazol-4-yl)amino)-1H-pyrazolo[3,4-d]pyrimidin-1-yl)methyl)phenyl)morpholin-3-one]	5.00 to 6.00	>50 Fold	6.00 to 7.00
O=C1COCCN1c1cc(F)cc(Cn2ncc3cnc(Nc4cnn(CCS(=O)(=O)NC5CC5)c4)nc32)c1 [Example 106, N-cyclopropyl-2-(4-((1-(3-fluoro-5-(3-oxomorpholino)benzyl)-1H-pyrazolo[3,4-d]pyrimidin-6-yl)amino)-1H-pyrazol-1-yl)ethanesulfonamide]	5.00 to 6.00	10-50 Fold	6.00 to 7.00
N#CCCn1cc(Nc2ncc3cnn(Cc4cc(F)cc(N5CCOCC5=O)c4)c3n2)cn1 [Example 107, 3-(4-((1-(3-fluoro-5-(3-oxomorpholino)benzyl)-1H-pyrazolo[3,4-d]pyrimidin-6-yl)amino)-1H-pyrazol-1-yl)propanenitrile]	5.00 to 6.00	10-50 Fold	6.00 to 7.00
Cn1cc(Nc2ncc3cnn(Cc4cccc(N5CCC(=O)CC5)c4)c3n2)cn1 [Example 108, 1-(3-((6-((1-methyl-1H-pyrazol-4-yl)amino)-1H-pyrazolo[3,4-d]pyrimidin-1-yl)methyl)phenyl)piperidin-4-one]	≤ 5.00	10-50 Fold	5.00 to 6.00
O=C(Cn1cc(Nc2ncc3cnn(Cc4cc(F)cc(N5CCOCC5=O)c4)c3n2)cn1)N1CCNCC1 [Example 109, 4-(3-fluoro-5-((6-((1-(2-oxo-2-(piperazin-1-yl)ethyl)-1H-pyrazol-4-yl)amino)-1H-pyrazolo[3,4-d]pyrimidin-1-yl)methyl)phenyl)morpholin-3-one]	5.00 to 6.00	10-50 Fold	6.00 to 7.00
Cn1cc(Nc2ncc3cnn(Cc4c(F)c(F)cc(C(=O)N5CCOCC5)c4F)c3n2)cn1 [Example 110, morpholino(2,4,5-trifluoro-3-((6-((1-methyl-1H-pyrazol-4-yl)amino)-1H-pyrazolo[3,4-d]pyrimidin-1-yl)methyl)phenyl)methanone]	6.00 to 7.00	3-10 Fold	6.00 to 7.00
O=C(c1cc(F)c(F)c(Cn2ncc3cnc(Nc4cnn(CCO)c4)nc32)c1F)N1CCOCC1 [Example 111, morpholino(2,4,5-trifluoro-3-((6-((1-(2-hydroxyethyl)-1H-pyrazol-4-yl)amino)-1H-pyrazolo[3,4-d]pyrimidin-1-yl)methyl)phenyl)methanone]	5.00 to 6.00	10-50 Fold	6.00 to 7.00
C[C@H]1COCCN1c1cccc(Cn2ncc3cnc(Nc4cnn(C)c4)nc32)c1 [Example 112, (S)-N-(1-methyl-1H-pyrazol-4-yl)-1-(3-(3-methylmorpholino)benzyl)-1H-pyrazolo[3,4-d]pyrimidin-6-amine]	≤ 5.00	>50 Fold	5.00 to 6.00
C[C@@H]1COCCN1c1cccc(Cn2ncc3cnc(Nc4cnn(C)c4)nc32)c1 [Example 113, (R)-N-(1-methyl-1H-pyrazol-4-yl)-1-(3-(3-methylmorpholino)benzyl)-1H-pyrazolo[3,4-d]pyrimidin-6-amine]	≤ 5.00	>50 Fold	5.00 to 6.00
Cn1cc(Nc2ncc3cnn(Cc4cccc(NC5COC5)c4)c3n2)cn1 [Example 114, N-(1-methyl-1H-pyrazol-4-yl)-1-(3-(oxetan-3-ylamino)benzyl)-1H-pyrazolo[3,4-d]pyrimidin-6-amine]	5.00 to 6.00	10-50 Fold	6.00 to 7.00
Cn1cc(Nc2ncc3cnn(Cc4cccc(-c5cnn(C)c5)c4)c3n2)cn1 [Example 115, N-(1-methyl-1H-pyrazol-4-yl)-1-(3-(1-methyl-1H-pyrazol-4-yl)benzyl)-1H-pyrazolo[3,4-d]pyrimidin-6-amine]	5.00 to 6.00	>50 Fold	5.00 to 6.00
CCn1cc(-c2cccc(Cn3ncc4cnc(Nc5cnn(C)c5)nc43)c2)cn1 [Example 116, 1-(3-(1-ethyl-1H-pyrazol-4-yl)benzyl)-N-(1-methyl-1H-pyrazol-4-yl)-1H-pyrazolo[3,4-d]pyrimidin-6-amine]	5.00 to 6.00	>50 Fold	5.00 to 6.00
CC(C)n1cc(-c2cccc(Cn3ncc4cnc(Nc5cnn(C)c5)nc43)c2)cn1 [Example 117, 1-(3-(1-isopropyl-1H-pyrazol-4-yl)benzyl)-N-(1-methyl-1H-pyrazol-4-yl)-1H-pyrazolo[3,4-d]pyrimidin-6-amine]	≤ 5.00	>50 Fold	≤ 5.00

— patent US9040545B2, “Heterocyclyl pyrazolopyrimidine analogues as selective JAK inhibitors” (Cellzome Limited, priority 2010, dated 2015)
